Columns and labels:
collagenase (MMP-1) = target: T1, collagenase (MMP-1) (Homo sapiens, UniProt P03956); test: MMP-1 enzyme inhibition assay (coumarin-labelled peptide substrate); format: biochemical
T1 sequence (P03956 100-469): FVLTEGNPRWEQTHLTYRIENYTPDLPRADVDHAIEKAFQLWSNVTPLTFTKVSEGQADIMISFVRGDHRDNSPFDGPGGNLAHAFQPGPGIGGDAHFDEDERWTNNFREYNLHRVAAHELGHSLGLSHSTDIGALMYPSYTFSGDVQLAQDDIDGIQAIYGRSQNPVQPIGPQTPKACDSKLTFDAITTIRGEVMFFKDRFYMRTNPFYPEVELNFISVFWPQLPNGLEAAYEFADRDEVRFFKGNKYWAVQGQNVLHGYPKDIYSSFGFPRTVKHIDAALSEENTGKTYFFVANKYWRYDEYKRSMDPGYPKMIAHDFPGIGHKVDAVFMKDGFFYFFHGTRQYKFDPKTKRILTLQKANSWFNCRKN
Procedure: (§1) Stock solutions were made up as follows: Assay Butter: 100 mM Tris-HCl pH 7.6 containing 100 mM NaCl, 10 mM CaCl2, and 0.05% Brij 35.
(§2) Substrate: 0.4 mM McaPLGLDpaAR (from Bachem) (0.437 mg/ml) stock solution in 100% DMSO (stored at −20° C.). Dilute to 8 μM in assay butter.
(§3) Test Compounds were prepared initially as 10 mM compound solution in 100% DMSO, diluted to 1 mM in 100% DMSO, then serially diluted 3-fold in 100% DMSO across columns 1-10 of a 96-well microtitre plate Assay concentration range, 100 μM (column 1) to 5.1 nM (column 10).
(§4) The assay was performed in a total volume of 100 μL per well in 96-well microtitre plates. Activated enzyme (20 μL) was added to the wells followed by 20 μL of assay butter. Appropriate concentrations of test compounds dissolved in 10 μL of DMSO were then added followed by 50 μL of McaPLGLDpaAR (8 μM, prepared by dilution of DMSO stock in assay butter). For each assay ten concentrations of test compound were examined in duplicate. Control wells lack either enzyme or test compound. The reactions were incubated at 37° C. for 2 hours. The fluorescence at 405 nm was measured immediately with an SLT Fluostar fluorometer (SL T Labinstruments GmbH, Grödig, Austria) using 320 nm excitation, without stopping the reaction.
(§5) The effect of the test compound was determined from the dose response curve generated by the 10 duplicate concentrations of inhibitor. […]

gelatinase A (MMP-2) = target: T2, gelatinase A (MMP-2) (Homo sapiens, UniProt P08253); test: MMP-2 enzyme inhibition assay (coumarin-labelled peptide substrate); format: biochemical
T2 sequence (P08253 110-660): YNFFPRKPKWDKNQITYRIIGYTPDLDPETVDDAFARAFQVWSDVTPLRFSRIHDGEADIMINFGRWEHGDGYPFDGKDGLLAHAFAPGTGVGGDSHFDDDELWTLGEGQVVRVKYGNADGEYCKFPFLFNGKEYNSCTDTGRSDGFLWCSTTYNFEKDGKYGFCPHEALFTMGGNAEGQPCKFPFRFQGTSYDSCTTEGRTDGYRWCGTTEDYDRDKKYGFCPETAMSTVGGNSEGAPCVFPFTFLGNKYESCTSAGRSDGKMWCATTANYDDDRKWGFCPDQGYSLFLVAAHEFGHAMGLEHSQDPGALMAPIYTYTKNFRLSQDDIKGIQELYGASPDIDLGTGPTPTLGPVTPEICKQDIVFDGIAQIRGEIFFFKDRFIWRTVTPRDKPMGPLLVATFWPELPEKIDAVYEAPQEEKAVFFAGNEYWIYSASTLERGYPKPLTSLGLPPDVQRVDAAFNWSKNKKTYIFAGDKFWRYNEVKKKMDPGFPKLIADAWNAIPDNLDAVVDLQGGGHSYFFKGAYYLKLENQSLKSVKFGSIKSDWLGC
Procedure: as §1, §2, §3, §4, §5

[1] = system: IL-2-induced peritoneal recruitment of lymphocytes; test: IL-2-induced peritoneal recruitment of lymphocytes; format: in vivo, C3H/HEN mice; conditions: mice, 3 mg/kg p.o., 15 min prior to IL-2; cells collected 24 h after IL-2
Procedure: Administration of IL-2 intraperitoneally causes migration of lymphocytes into the intraperitoneal cavity. This is a model for the cellular migration that occurs during inflammation.
C3H/HEN mice (Elevage Janvier, France) were intraperitoneally injected with IL-2 (20 μg/kg, in saline).
Compounds of the invention were suspended in 0.5% carboxymethylcellulose (CMC)/0.25% tween-20 and were administered by s.c. or p.o. route (10 ml/kg) 15 min prior to administration of IL-2.
Twenty-four hours after administration of IL-2, peritoneal white blood cells were collected by 3 successive lavages of the peritoneal cavity with 5 ml phosphate buffered saline (PBS)-1 mM EDTA (+4° C.). The suspension was centrifuged (1700 g×10 min at +4° C.). The resulting pellet was suspended in 1 ml PBS-1 mM EDTA.
Lymphocytes were identified and counted using a Beckman/Coulter counter.
The animals were divided into 6 groups (6 mice each group):
Inhibition of lymphocyte recruitment was calculated as follows:
Where Ly 1=Number of lymphocytes in group 1 (E3/μl), Ly 2=Number of lymphocytes in group 2 (E3/μl), Ly X=Number of lymphocytes in group X (3-5) (E3/μl).

metalloelastase (MMP-12) = metalloelastase (MMP-12) (Homo sapiens, UniProt P39900); test: MMP-12 enzyme inhibition assay (coumarin-labelled peptide substrate); format: biochemical
Sequence of metalloelastase (MMP-12) (P39900 106-470): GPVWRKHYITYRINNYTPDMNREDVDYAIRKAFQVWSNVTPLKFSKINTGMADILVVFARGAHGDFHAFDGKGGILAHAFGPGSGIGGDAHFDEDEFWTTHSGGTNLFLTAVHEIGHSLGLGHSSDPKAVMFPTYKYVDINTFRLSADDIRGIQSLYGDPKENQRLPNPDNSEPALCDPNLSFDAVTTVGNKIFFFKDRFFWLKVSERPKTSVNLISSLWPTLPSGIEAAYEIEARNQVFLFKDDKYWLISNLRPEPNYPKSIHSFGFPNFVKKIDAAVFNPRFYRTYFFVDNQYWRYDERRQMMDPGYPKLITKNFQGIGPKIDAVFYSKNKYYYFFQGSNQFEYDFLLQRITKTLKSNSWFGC
Procedure: as §1, §2, §3, §4, §5

Compound	IC50 (collagenase (MMP-1))	IC50 (gelatinase A (MMP-2))	% inhibition of IL-2-induced peritoneal recruitment of lymphocytes [1]	IC50 (metalloelastase (MMP-12))
COc1ccc(N2CCN(C(=O)[C@@H](CC(C)C)CN(O)C=O)CC2)cc1 [Example 1, hydroxy((2S)-2-{[4-(4-methoxyphenyl)piperazin-1-yl]carbonyl}-4-methylpentyl)formamide]	> 5 µM	13 nM	35 ± 10%	68 nM
CC(C)C[C@@H](CN(O)C=O)C(=O)N1CCN(c2ccc(-c3ccccc3)cc2)CC1 [Example 2, {(2S)-2-[(4-biphenyl-4-ylpiperazin-1-yl)carbonyl]-4-methylpentyl}hydroxyformamide]	> 5 µM	9 nM	–	8 nM

From US8309579B2, “N-hydroxyamide derivatives and use thereof” (Merck Serono SA, priority 2005, dated 2012)
